The text below walks through data of patent US20260125346A1, “Isoquinolinone Derivatives and 4H-Quinolizinone Derivatives and Pharmaceutical Compositions Thereof for the Treatment of Disease” (BeOne Medicines I GmbH, priority 2023, published 2026).

Experiment [1] relates to PI3Kα H1047R mutated cell line T-47D cells. As to the kind of experiment: Cell Proliferation Assay (CellTiter-Glo), T-47D. The format is cell-based. Particulars: for IC50: Homo sapiens, T47D, 72 h, T-47D, 3 days treatment; for Selectivity: SK-BR-3/T-47D (cell proliferation): cell proliferation IC50 ratio. The gist of the method:
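T-47D cells seeded overnight at 3×10^3/well, then exposed 3 days to 9-point 1:3 dilutions, final […] to 1 nM in 0.1% DMSO. CellTiter-Glo luminescence; relative IC50 from percent inhibition versus medium-only and 0.1% DMSO controls, 4-parameter logistic fit.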
On the technique in general: In ATP-based viability assays light output follows the ATP content of the culture.

For experiment [2], the system named is PI3Kα H1047R mutated cell line T-47D. As to the kind of experiment: Phospho-AKT (Ser473) Inhibition Assay (HTRF), T-47D. The format is cell-based. To be noted: for IC50: Homo sapiens, T47D, T-47D, 1 hour treatment, read-out: p-AKT Inhibition assay (S473) IC50 T-47D; for Selectivity: SK-BR-3/T-47D (p-AKT): p-AKT (S473) IC50 ratio. The gist of the method: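 Cells seeded overnight in insulin-supplemented MEM, then treated 1 h with 11-point 1:3 compound dilutions (10 μM to 0.1 nM final, 0.1% DMSO). Lysates assayed for phospho-AKT Ser473 by HTRF; IC50 from 4-parameter logistic fit, normalised to DMSO (max) and 10 μM GDC0077 (min).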
(Time-resolved FRET reads energy transfer from a long-lived donor to a nearby acceptor.)

Experiment [3] has as its target PI3Kα (p110[H1047R]/p85) kinase (Homo sapiens, UniProt P42336, H1047R). As to the kind of experiment: PI3Kα (p110[H1047R]/p85) kinase ADP-Glo Assay. The format is biochemical. To be noted: 25 uM ATP; for selectivity: WT/H1047R: ADP-Glo Assay IC50 ratio. The gist of the method:
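PI3Kα H1047R/p85 pre-incubated 30 min at room temperature with PI(4,5)P2:PS substrate ([…]) and compound ([…]) in HEPES pH 7.5 buffer with MgCl2; ATP ([…]) then added for 120 min. ADP quantified by ADP-Glo luminescence; IC50 from four-parameter logistic fit.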
On the technique in general: ADP-Glo turns the ADP formed in a reaction into a luminescent signal.

Sequence of PI3Kα (p110[H1047R]/p85) kinase (P42336 whole entry H1047R): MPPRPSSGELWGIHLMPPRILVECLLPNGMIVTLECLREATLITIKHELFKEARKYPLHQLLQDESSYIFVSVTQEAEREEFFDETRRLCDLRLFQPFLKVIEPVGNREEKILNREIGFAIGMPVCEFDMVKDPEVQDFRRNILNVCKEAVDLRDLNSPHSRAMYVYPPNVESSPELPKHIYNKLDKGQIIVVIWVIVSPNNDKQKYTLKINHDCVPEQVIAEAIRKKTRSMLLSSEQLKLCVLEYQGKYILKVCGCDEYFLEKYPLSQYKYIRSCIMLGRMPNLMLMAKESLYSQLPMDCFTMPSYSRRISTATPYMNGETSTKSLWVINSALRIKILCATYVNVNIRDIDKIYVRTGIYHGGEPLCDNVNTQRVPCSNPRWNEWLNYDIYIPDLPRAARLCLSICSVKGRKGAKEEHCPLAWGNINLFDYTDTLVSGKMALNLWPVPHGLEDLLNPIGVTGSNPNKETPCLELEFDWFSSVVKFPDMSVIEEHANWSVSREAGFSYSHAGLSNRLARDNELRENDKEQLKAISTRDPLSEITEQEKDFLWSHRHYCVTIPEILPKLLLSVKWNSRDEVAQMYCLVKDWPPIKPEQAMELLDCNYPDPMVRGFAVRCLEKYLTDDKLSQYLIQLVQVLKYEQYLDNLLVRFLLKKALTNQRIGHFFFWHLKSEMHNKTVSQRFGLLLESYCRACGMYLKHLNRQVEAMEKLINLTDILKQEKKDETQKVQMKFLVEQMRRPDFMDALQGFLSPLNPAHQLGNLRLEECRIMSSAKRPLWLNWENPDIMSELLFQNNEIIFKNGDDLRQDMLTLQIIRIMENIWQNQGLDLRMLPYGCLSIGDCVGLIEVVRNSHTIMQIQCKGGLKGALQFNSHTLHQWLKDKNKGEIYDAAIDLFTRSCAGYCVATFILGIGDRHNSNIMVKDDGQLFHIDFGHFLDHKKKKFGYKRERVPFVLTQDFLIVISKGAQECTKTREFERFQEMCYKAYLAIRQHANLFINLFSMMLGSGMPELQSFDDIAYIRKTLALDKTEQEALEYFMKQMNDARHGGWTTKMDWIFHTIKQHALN
Sequence of PI3Kα (p110[H1047R]/p85) kinase (P27986 whole entry partner): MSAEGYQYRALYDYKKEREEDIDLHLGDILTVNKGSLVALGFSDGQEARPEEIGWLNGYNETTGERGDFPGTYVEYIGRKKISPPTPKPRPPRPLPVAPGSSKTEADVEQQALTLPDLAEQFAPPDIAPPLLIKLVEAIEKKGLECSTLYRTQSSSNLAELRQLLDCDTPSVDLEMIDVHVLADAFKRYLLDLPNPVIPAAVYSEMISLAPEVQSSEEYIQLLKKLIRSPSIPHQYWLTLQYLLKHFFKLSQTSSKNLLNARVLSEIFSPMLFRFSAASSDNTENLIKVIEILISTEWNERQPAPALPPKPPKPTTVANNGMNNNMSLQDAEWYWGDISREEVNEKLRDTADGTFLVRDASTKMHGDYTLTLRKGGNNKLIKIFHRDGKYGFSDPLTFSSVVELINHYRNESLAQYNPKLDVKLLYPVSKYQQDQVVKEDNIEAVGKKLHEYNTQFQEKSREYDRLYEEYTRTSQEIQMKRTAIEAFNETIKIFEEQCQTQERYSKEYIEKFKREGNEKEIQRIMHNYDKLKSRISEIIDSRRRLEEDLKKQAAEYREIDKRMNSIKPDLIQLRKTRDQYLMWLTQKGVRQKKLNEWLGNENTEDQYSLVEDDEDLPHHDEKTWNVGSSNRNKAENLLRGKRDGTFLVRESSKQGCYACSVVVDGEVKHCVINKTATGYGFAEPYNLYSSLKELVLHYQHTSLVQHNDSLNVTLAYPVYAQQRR

The IC50 is the concentration that gives 50% inhibition. For `Cc1cc(C(C)Nc2ccccc2C(=O)O)c2cc(-c3ccc(C4(O)CC4)cc3)n(C)c(=O)c2c1` (stereo not drawn) [Example 62, 2-((1-(3-(4-(1-hydroxycyclopropyl)phenyl)-2,7-dimethyl-1-oxo-1,2-dihydroisoquinolin-5-yl)ethyl)amino)benzoic acid], in experiment [1], the IC50 is 118 nM and the “Selectivity: SK-BR-3/T-47D (cell proliferation)” value is >85. Moreover, in experiment [2], the IC50 came out at 130 nM and the “Selectivity: SK-BR-3/T-47D (p-AKT)” value was 22.9. Further, in experiment [3], the IC50 was determined as 230 nM and the “selectivity: WT/H1047R” value is listed as 20.6.
On to `Cc1cc(C(C)Nc2ccccc2C(=O)O)c2cc(-c3ccc(F)cc3)n(CC#N)c(=O)c2c1` (stereo not drawn) [Example 63, 2-((1-(2-(cyanomethyl)-3-(4-fluorophenyl)-7-methyl-1-oxo-1,2-dihydroisoquinolin-5-yl)ethyl)amino)benzoic acid], for which, in experiment [1], the 50% inhibitory concentration (IC50) amounted to 205 nM and the “Selectivity: SK-BR-3/T-47D (cell proliferation)” value is reported as >49. In experiment [2], the IC50 was determined as 57.3 nM and the “Selectivity: SK-BR-3/T-47D (p-AKT)” value was determined as 83.3. For the same compound, in experiment [3], the midpoint of inhibition, the IC50, lay at 92 nM and the “selectivity: WT/H1047R” value is given as 66.8.
With `Cc1cc([C@@H](C)Nc2ccccc2C(=O)O)c2cc(-c3ccc(F)cc3)n(CC#N)c(=O)c2c1` [Example 64, (R)-2-((1-(2-(cyanomethyl)-3-(4-fluorophenyl)-7-methyl-1-oxo-1,2-dihydroisoquinolin-5-yl)ethyl)amino)benzoic acid], in experiment [1], 70 nM corresponded to half-maximal inhibition (IC50) and the “Selectivity: SK-BR-3/T-47D (cell proliferation)” value was >143. Moreover, in experiment [2], the IC50 worked out at 32.4 nM and the “Selectivity: SK-BR-3/T-47D (p-AKT)” value is >308. In experiment [3], 113 nM corresponded to half-maximal inhibition (IC50) and the “selectivity: WT/H1047R” value came out at 21.9.
Consider `Cc1cc(C(C)Nc2ccccc2C(=O)O)c2cc(-c3cnc(C(C)(C)O)nc3)n(C)c(=O)c2c1` (stereo not drawn) [Example 66, 2-((1-(3-(2-(2-hydroxypropan-2-yl)pyrimidin-5-yl)-2,7-dimethyl-1-oxo-1,2-dihydroisoquinolin-5-yl)ethyl)amino)benzoic acid], for which, in experiment [1], the IC50 came to 908 nM and the “Selectivity: SK-BR-3/T-47D (cell proliferation)” value is >11. Besides, in experiment [2], the IC50 came out at 2800 nM and the “Selectivity: SK-BR-3/T-47D (p-AKT)” value is >3.57. Moreover, in experiment [3], the IC50 stood at 1110 nM and the “selectivity: WT/H1047R” value is 19.3.
Consider `Cc1cc([C@@H](C)Nc2ccccc2C(=O)O)c2cc(-c3cnc(C(C)(C)O)nc3)n(C)c(=O)c2c1` [Example 67, (R)-2-((1-(3-(2-(2-hydroxypropan-2-yl)pyrimidin-5-yl)-2,7-dimethyl-1-oxo-1,2-dihydroisoquinolin-5-yl)ethyl)amino)benzoic acid], for which, in experiment [1], the IC50 came to 279 nM and the “Selectivity: SK-BR-3/T-47D (cell proliferation)” value was >36. Also, in experiment [2], the IC50 came out at 1540 nM and the “Selectivity: SK-BR-3/T-47D (p-AKT)” value was >6.51. In experiment [3], the IC50 was found to be 1210 nM and the “selectivity: WT/H1047R” value stood at 11.2.
Regarding `Cc1cc(C(C)Nc2ccccc2C(=O)O)c2cc(-c3ccc(F)cc3)n(C3CCOC3)c(=O)c2c1` (stereo not drawn) [Example 69, 2-((1-(3-(4-fluorophenyl)-7-methyl-1-oxo-2-(tetrahydrofuran-3-yl)-1,2-dihydroisoquinolin-5-yl)ethyl)amino)benzoic acid], in experiment [1], the IC50 is 1690 nM and the “Selectivity: SK-BR-3/T-47D (cell proliferation)” value is recorded as >5.9. In experiment [2], the IC50 was determined as 103 nM and the “Selectivity: SK-BR-3/T-47D (p-AKT)” value was >97. For the same compound, in experiment [3], the IC50 is 416 nM and the “selectivity: WT/H1047R” value is on record as 45.3.
As for `Cc1cc(C(C)Nc2ccccc2C(=O)O)c2cc(-c3ccc4c(c3)CN(C)C4=O)n(C)c(=O)c2c1` (stereo not drawn) [Example 70, 2-((1-(2,7-dimethyl-3-(2-methyl-1-oxoisoindolin-5-yl)-1-oxo-1,2-dihydroisoquinolin-5-yl)ethyl)amino)benzoic acid], in experiment [1], the IC50 was found to be 245 nM and the “Selectivity: SK-BR-3/T-47D (cell proliferation)” value was >41. Besides, in experiment [2], the IC50 was 1100 nM and the “Selectivity: SK-BR-3/T-47D (p-AKT)” value is given as >9.11. In addition, in experiment [3], the IC50 was 872 nM and the “selectivity: WT/H1047R” value amounted to 24.2.
Turning to `Cc1cc(C(C)Nc2ccccc2C(=O)O)c2cc(-c3ccc(F)cc3)n(-c3nccs3)c(=O)c2c1` (stereo not drawn) [Example 71, 2-((1-(3-(4-fluorophenyl)-7-methyl-1-oxo-2-(thiazol-2-yl)-1,2-dihydroisoquinolin-5-yl)ethyl)amino)benzoic acid], in experiment [1], inhibition was half-maximal at 267 nM (IC50) and the “Selectivity: SK-BR-3/T-47D (cell proliferation)” value is on record as >34. In experiment [2], the half-inhibitory concentration (IC50) worked out at 102 nM and the “Selectivity: SK-BR-3/T-47D (p-AKT)” value is 55.0. In experiment [3], half-maximal inhibition (IC50) was put at 312 nM and the “selectivity: WT/H1047R” value is 45.7.
As for `Cc1cc(C(C)Nc2ccccc2C(=O)O)c2cc(-c3ccc(N4CCC(C)(O)CC4)nc3)n(C)c(=O)c2c1` (stereo not drawn) [Example 72, 2-((1-(3-(6-(4-hydroxy-4-methylpiperidin-1-yl)pyridin-3-yl)-2,7-dimethyl-1-oxo-1,2-dihydroisoquinolin-5-yl)ethyl)amino)benzoic acid], in experiment [1], the IC50 stood at 175 nM and the “Selectivity: SK-BR-3/T-47D (cell proliferation)” value was >57. Further, in experiment [2], the IC50 came out at 633 nM and the “Selectivity: SK-BR-3/T-47D (p-AKT)” value was >15.79. Besides, in experiment [3], the IC50 was found to be 1070 nM and the “selectivity: WT/H1047R” value is reported as 19.2.
On to `Cc1cc(C(C)Nc2ccccc2C(=O)O)c2cc(-c3ccc(C4(O)CCOCC4)cc3)n(C)c(=O)c2c1` (stereo not drawn) [Example 73, 2-((1-(3-(4-(4-hydroxytetrahydro-2H-pyran-4-yl)phenyl)-2,7-dimethyl-1-oxo-1,2-dihydroisoquinolin-5-yl)ethyl)amino)benzoic acid], for which, in experiment [1], the IC50 stood at 171 nM and the “Selectivity: SK-BR-3/T-47D (cell proliferation)” value is >59. In experiment [2], the half-inhibitory concentration (IC50) is 924 nM and the “Selectivity: SK-BR-3/T-47D (p-AKT)” value is recorded as >10.82. For the same compound, in experiment [3], the IC50 is 1030 nM and the “selectivity: WT/H1047R” value turned out to be 25.4.
For the compound `COC1(c2ccc(-c3cc4c(C(C)Nc5ccccc5C(=O)O)cc(C)cc4c(=O)n3C)cc2)CCOCC1` (stereo not drawn) [Example 74, 2-((1-(3-(4-(4-methoxytetrahydro-2H-pyran-4-yl)phenyl)-2,7-dimethyl-1-oxo-1,2-dihydroisoquinolin-5-yl)ethyl)amino)benzoic acid], in experiment [1], 86.9 nM corresponded to half-maximal inhibition (IC50) and the “Selectivity: SK-BR-3/T-47D (cell proliferation)” value is on record as >115. In experiment [2], the IC50 was 307 nM and the “Selectivity: SK-BR-3/T-47D (p-AKT)” value is listed as 14.3. Further, in experiment [3], the IC50 stood at 729 nM and the “selectivity: WT/H1047R” value amounted to 18.0.
Consider `Cc1cc(C(C)Nc2ccccc2C(=O)O)c2cc(-c3ccc4c(c3)C(=O)N(C)C4)n(C)c(=O)c2c1` (stereo not drawn) [Example 75, 2-((1-(2,7-dimethyl-3-(2-methyl-3-oxoisoindolin-5-yl)-1-oxo-1,2-dihydroisoquinolin-5-yl)ethyl)amino)benzoic acid], for which, in experiment [1], the IC50 stood at 270 nM and the “Selectivity: SK-BR-3/T-47D (cell proliferation)” value is recorded as >37. In experiment [2], the IC50 is 547 nM and the “Selectivity: SK-BR-3/T-47D (p-AKT)” value is recorded as >18.29. In addition, in experiment [3], the IC50 was determined as 974 nM and the “selectivity: WT/H1047R” value turned out to be 32.3.
